Experiment [1] deals with HbA1C (glycated hemoglobin) expression. Nature of the experiment: Larval diabetic zebrafish assay, Western blot of HbA1C. Type of experiment: in vivo. The note with it: diabetic zebrafish larvae, 10 μM. As to the method: (§1) Following isolation, derivatization, and analysis of compounds 41-48 through the in vitro panel of assays, the mace natural products and licarin A derivatives were investigated in the larval diabetic zebrafish assay for potential antidiabetic activity. Western blot analysis of zebrafish expression levels for glycated hemoglobin, metabolic enzymes, and molecular targets NFκB and PPAR-γ was performed to evaluate potential lead improvement and to discover possible mechanisms of action.
(§2) Wild-type zebrafish were sorted into 24-well microplates with 10 fish per well for a four-phase treatment cycle. At 72 hpf, type 2 diabetes was induced by administering 0.5 mg/mL alloxan in fish water for percutaneous absorption. After three hours of alloxan treatment, phase two of the treatment cycle was initiated by administering 10 μM doses of natural product compounds 41-43 (FIG. 4) or derivatives 45-48 (FIG. 6) with 0.01% DMSO in system water. At 78 hpf, the incubation solution was changed to 10 mg/ml D-glucose for 30 minutes, followed by a phase-four rinse in fresh system w Following the four-phase treatment cycle, zebrafish treatment groups were snap frozen in microcentrifuge tubes on dry ice, stored overnight at −80° C., thawed, and homogenized with 2 μL PBS per animal. Following centrifugation (60 minutes at 4° C. and 17,000 rpm), protein content of the homogenate supernatant was determined using the Pierce BCA Protein Assay kit (Pierce Biotechnology). Homogenates were analyzed by Western blot with equal amounts of total protein (20 μg) in each sample and using 4×LDS loading buffer (NuPAGE Life Technologies). The immunoblot samples were heated at 95° C. for 5 minutes and loaded onto NuPAGE Bis-Tris 4-12% gradient SDS-PAGE gels.
(§3) Electrophoresis was performed with NuPAGE MES SDS Running Buffer and using the XCell SureLock Mini-Cell Electrophoresis System (Life Technologies). Proteins separated on the gel were transferred to a PVDF membrane using TBST buffer. The blots were blocked in 3% BSA in TBST and subsequently probed overnight with primary antibodies (1:1000 in 1% BSA in TBST) against each target of interest. Following TBST rinses, secondary HRP-conjugated antibodies (1:2000) were applied to the membrane for 60 minutes. The HRP conjugated antibodies were detected using SuperSignal West Femto chemiluminescent substrate (Pierce Biotechnology) and immunoblot images were captured using the luminometer and Lumi Analyst 3.0 software.
(§4) Band densities were determined using ImageJ Gel Analysis to determine expression levels of each protein of interest. Expression levels of HbA1C, PPAR-γ, and NFκB were organized into a bar graphs (FIG. 5) with band densities calculated in comparison to the housekeeping gene β-actin, normalized to the untreated diabetic group (B) of zebrafish. […].

In the next experiment the target is T1, NFκB (Homo sapiens, UniProt Q04206).
T1 construct: endogenous in cells; host or cells: HeLa cells (ATCC), nuclear extract
Nature of the experiment: NFκB assay (EZ-Detect Transcription Factor Assay kit; TNF-α-treated HeLa cells, nuclear extracts). Type of experiment: cell-based. As to the method:
To assess the ability of natural product extracts and compounds to inhibit the specific binding of activated NFκB transcription factor to the biotinylated consensus sequence, the EZ-Detect™ Transcription Factor Assay kit (Pierce Biotechnology) was used according to the kit manual and established protocol. HeLa cells (ATCC) were treated with each test sample and TNF-α, nuclear extracts harvested using the NE-PER kit (Pierce Biotechnology), and protein content equilibrated using the Pierce BCA Protein Assay kit (Pierce Biotechnology). Specific binding was detected through quantification of chemiluminescent signal in a plate reader (FLUOstar Optima, BMG Labtechnologies GmbH, Inc.).

The next experiment has as its target T2, PPAR-γ (Homo sapiens, UniProt P37231).
T2 construct: endogenous in cells; host or cells: CCD-112CoN normal colon cells or HeLa cells (ATCC), nuclear extract
T2 sequence (P37231 1-505): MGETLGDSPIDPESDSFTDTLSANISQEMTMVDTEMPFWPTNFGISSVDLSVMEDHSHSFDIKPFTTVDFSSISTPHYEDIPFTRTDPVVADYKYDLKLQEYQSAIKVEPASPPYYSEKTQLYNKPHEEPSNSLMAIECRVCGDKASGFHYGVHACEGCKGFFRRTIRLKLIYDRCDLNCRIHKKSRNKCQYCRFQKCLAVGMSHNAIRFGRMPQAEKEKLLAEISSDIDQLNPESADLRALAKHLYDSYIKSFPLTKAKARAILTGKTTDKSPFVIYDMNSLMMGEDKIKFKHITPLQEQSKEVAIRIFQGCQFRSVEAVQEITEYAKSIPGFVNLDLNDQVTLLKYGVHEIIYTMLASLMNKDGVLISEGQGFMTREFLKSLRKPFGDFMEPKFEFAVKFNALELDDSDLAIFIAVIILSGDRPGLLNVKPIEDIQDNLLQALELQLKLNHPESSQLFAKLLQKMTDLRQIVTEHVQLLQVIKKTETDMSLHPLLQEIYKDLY
Nature of the experiment: PPAR-γ ELISA assay (PPAR-α,γ,δ Complete Transcription Factor Assay Kit; CCD-112CoN or Hela cells, nuclear extracts). The class given is cell-based. As to the method: To evaluate the ability of natural product extracts and compounds to induce specific binding of PPAR-γ transcription factor in nuclear extracts to immunosorbed peroxisome proliferator response element, the PPAR-α,γ,δ Complete Transcription Factor Assay Kit (Cayman Chemical Company) was used according to the kit protocol. 303 CCD-112CoN normal colon cells or Hela cells (ATCC) were treated with mace extracts or isolated compounds for 24 h, nuclear extracts were harvested using the NE-PER kit (Pierce Biotechnology), and protein content equilibrated using the Pierce BCA Protein Assay kit (Pierce Biotechnology). Specific binding was detected through quantification of absorptivity at 630 nm in a BioTek uQuant microplate reader (BioTek Instruments, Inc.). […] Licarin A derivatives 45-48 were screened through the panel of in vitro assays to evaluate their potential as antidiabetic compound leads. […] Methods for the assay were as described above.

The test system of a further experiment is PEPCK expression. The experiment in a line: Larval diabetic zebrafish assay, Western blot of PEPCK. Type of experiment: in vivo. The note with it: duplicate Western blot (FIG. 10), diabetic zebrafish larvae, 10 μM. As to the method:
as §1, §2, §3, §4

Another experiment has as its system GLUT-4 expression. Nature of the experiment: Larval diabetic zebrafish assay, Western blot of GLUT-4. The note with it: duplicate Western blot (FIG. 11), diabetic zebrafish larvae, 10 μM. Type of experiment: in vivo. The method, then: as §1
Wild-type zebrafish were sorted into 24-well microplates with 10 fish per well for a four-phase treatment cycle. At 72 hpf, type 2 diabetes was induced by administering 0.5 mg/mL alloxan in fish water for percutaneous absorption. After three hours of alloxan treatment, phase two of the treatment cycle was initiated by administering 10 μM doses of natural product compounds 41-43 (FIG. 4) or derivatives 45-48 (FIG. 6) with 0.01% DMSO in system water. […] Following centrifugation (60 minutes at 4° C. and 17,000 rpm), protein content of the homogenate supernatant was determined using the Pierce BCA Protein Assay kit (Pierce Biotechnology). Homogenates were analyzed by Western blot with equal amounts of total protein (20 μg) in each sample and using 4×LDS loading buffer (NuPAGE Life Technologies). […]
Electrophoresis was performed with NuPAGE MES SDS Running Buffer and using the XCell SureLock Mini-Cell Electrophoresis System (Life Technologies). […] The HRP conjugated antibodies were detected using SuperSignal West Femto chemiluminescent substrate (Pierce Biotechnology) and immunoblot images were captured using the luminometer and Lumi Analyst 3.0 software.
as §4

The mark [2] stands for this setting: preliminary Western blot (FIG. 5), not in replicate.
[3] abbreviates: Table 20 summary, read-out: NFκBIC50.

Entries after “also recorded” stand apart in the source; their conditions may differ. Where two headings read alike, the source gives them in different places.

T1 sequence (Q04206 whole entry): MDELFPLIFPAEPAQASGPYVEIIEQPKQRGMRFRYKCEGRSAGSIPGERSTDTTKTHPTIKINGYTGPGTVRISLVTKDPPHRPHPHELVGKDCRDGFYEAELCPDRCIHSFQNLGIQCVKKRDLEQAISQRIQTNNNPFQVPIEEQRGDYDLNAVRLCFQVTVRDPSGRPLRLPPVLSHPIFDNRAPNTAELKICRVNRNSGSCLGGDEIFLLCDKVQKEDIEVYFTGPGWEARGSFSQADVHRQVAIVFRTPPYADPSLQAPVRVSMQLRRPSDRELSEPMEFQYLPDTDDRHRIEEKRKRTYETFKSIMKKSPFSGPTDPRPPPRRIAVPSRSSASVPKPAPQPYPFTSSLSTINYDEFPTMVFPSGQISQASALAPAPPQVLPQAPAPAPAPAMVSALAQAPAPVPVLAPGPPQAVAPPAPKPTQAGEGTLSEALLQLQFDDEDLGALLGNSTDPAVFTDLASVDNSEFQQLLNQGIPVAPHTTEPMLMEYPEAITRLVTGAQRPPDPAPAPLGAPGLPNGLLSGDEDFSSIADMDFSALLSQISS

Take `C/C=C/c1cc(OC)c2c(c1)[C@H](C)[C@@H](c1ccc3c(c1)OCO3)O2` [Compound 41, licarin B]: the “HbA1C expression (band density)” value in experiment [1] (setting [2]) is given as “HbA1C levels even lower than those treated with the thiazolidinedione rosiglitazone; also recorded: excellent hypoglycemic effect”. Also, the values for the IC50 on NFκB (setting [3]) and against NFκB (in vitro NFκB assay) were 479 nM and 475 nM, respectively. For the same compound, the PPAR-γ % activation is reported as 45% on PPAR-γ (Table 14, isolates at 50 μg/mL) and 45% on PPAR-γ (Table 20 summary, 50 μg/mL).
Consider `C/C=C/c1cc(OC)c2c(c1)[C@H](C)[C@@H](c1ccc(O)c(OC)c1)O2` [Compound 42, licarin A], for which the “HbA1C expression (band density)” value in experiment [1] (duplicate Western blot (FIG. 7)) is listed as “most effective test samples for decreasing HbA1C”; in experiment [1] (setting [2]), “least effective of the three natural products at reducing HbA1C expression”. Moreover, in the experiment on PEPCK expression, the “PEPCK expression (band density)” value is recorded as “retained low PEPCK expression”. In addition, the IC50 against NFκB (Table 13, tested at 50, 5, 0.5 and 0.05 μg/mL) stood at 30.6 nM; at NFκB (setting [3]) it was 30.6 nM; against NFκB (in vitro NFκB assay) it was 30.6 nM. The “PPAR-γ activity, % as active/effective as positive control rosiglitazone” value on PPAR-γ (50 μg/mL) is on record as 81%. In addition, the PPAR-γ % activation at PPAR-γ (Table 14, isolates at 50 μg/mL) is given as 81%; on PPAR-γ (Table 20 summary, 50 μg/mL), 81%. The “PPAR-γ activity in vitro” value at PPAR-γ (preliminary screening, 50 μg/mL) was “moderate PPAR-Y activity”. Moreover, in the experiment with GLUT-4 expression, the “GLUT-4 expression (band density)” value is “significantly increased capacities for glucose uptake”.
